Each compound was assayed against Dehydrogenase/reductase SDR family member 6 (Homo sapiens) (UniProt Q9BUT1) (assay: DHRS6 binders by thermal stabilisation, biophysical, DSF, SYPRO orange, purified human protein (AID 510)). Conditions: at 100 µM, protein 2 µM, buffer 10 mM HEPES, pH 7.5, NaCl 150 mM, stronger effect = higher value.
Sequence of Dehydrogenase/reductase SDR family member 6 (Homo sapiens) (Q9BUT1 whole entry, looked up): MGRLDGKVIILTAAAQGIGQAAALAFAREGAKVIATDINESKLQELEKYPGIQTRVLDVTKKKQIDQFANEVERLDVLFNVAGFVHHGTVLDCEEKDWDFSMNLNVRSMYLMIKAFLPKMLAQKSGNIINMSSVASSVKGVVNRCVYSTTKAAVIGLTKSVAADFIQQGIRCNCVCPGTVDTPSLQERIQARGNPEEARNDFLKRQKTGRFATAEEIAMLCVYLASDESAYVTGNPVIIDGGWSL
For `O=C1C2(Cl)C3(Cl)C4(Cl)C(Cl)(Cl)C5(Cl)C3(Cl)C1(Cl)C5(Cl)C24Cl` (stereo not given), the Tm shift was 4.7 Celsius. For `O=c1oc2cc(O)ccc2c2oc3cc(O)ccc3c12`, the Tm shift was 2.2 Celsius. `C=CC1=C(C)/C(=C/c2[nH]c(Cc3[nH]c(/C=C4\NC(=O)C(C)=C4C=C)c(C)c3CCC(=O)O)c(CCC(=O)O)c2C)NC1=O` gave a Tm shift of 8.1 Celsius. `O=C(C1CCN(S(=O)(=O)c2cccnc2)CC1)N1CCN(C(c2ccccc2)c2ccc(Cl)cc2)CC1` (stereo not given) showed a Tm shift of 2.2 Celsius. `NC(=O)c1ccc[n+](C2OC(COP(=O)(O)OP(=O)(O)OCC3OC(n4cnc5c(N)ncnc54)C(O)C3O)C(O)C2O)c1` (stereo not given) was tested, and the Tm shift was 2.4 Celsius.

From PubChem BioAssay AID510
